Data published in ChEMBL document CHEMBL5331051, “Cationic, amphipathic small molecules based on a triazine-piperazine-triazine scaffold as a new class of antimicrobial agents” (Eur J Med Chem, 2022).
Converted amounts (≈) assume the structure as drawn. The source made the active and inactive calls. No cut-off for these calls is given here.

Assays:
Pseudomonas aeruginosa [1] = experiment: Synergistic antibacterial activity against multidrug-resistant Pseudomonas aeruginosa CCARM 2095 strain assessed as bacterial growth inhibition by checkerboard assay; type: functional
Pseudomonas aeruginosa [2] = experiment: Synergistic antibacterial activity against multidrug-resistant Pseudomonas aeruginosa CCARM 2095 strain assessed as oxacillin MIC by checkerboard assay; type: functional
Staphylococcus aureus [3] = experiment: Additive antibacterial activity against multidrug-resistant Staphylococcus aureus CCARM 3089 strain assessed as ciprofloxacin fractional inhibitory concentration by checkerboard assay; type: functional
Staphylococcus aureus [4] = experiment: Antibacterial activity against methicillin-resistant Staphylococcus aureus CCARM 3090 strain assessed as bacterial growth inhibition measured at 18 to 24 hrs by microdilution assay; type: functional; details: time 18-24 hrs
DNA = experiment: Binding affinity to plasmid DNA (unknown origin) assessed as retardation of DNA migration at 4 to 8 ug/ml incubated for 1 hr by agarose gel electrophoresis method; type: nucleic-acid assay; details: dose 4-8 µg/ml
Escherichia coli [5] = experiment: Antibacterial activity against Escherichia coli KCTC 1682 strain assessed as bacterial growth inhibition measured at 18 to 24 hrs in presence of 2.5 mM CaCl2 by microdilution assay; type: functional; details: time 18-24 hrs
Staphylococcus aureus [6] = experiment: Additive antibacterial activity against methicillin-resistant Staphylococcus aureus CCARM 3089 strain assessed as chloramphenicol MIC by checkerboard assay; type: functional
Staphylococcus aureus [7] = experiment: Antibacterial activity against Staphylococcus aureus KCTC 1621 strain assessed as bacterial growth inhibition measured at 18 to 24 hrs in presence of 1 mM MgCl2 by microdilution assay; type: functional; details: time 18-24 hrs
Staphylococcus aureus [8] = experiment: Additive antibacterial activity against multidrug-resistant Staphylococcus aureus CCARM 3089 strain assessed as fractional inhibitory concentration index in presence of chloramphenicol by checkerboard assay; type: functional
Staphylococcus aureus [9] = experiment: Antibacterial activity against Staphylococcus aureus KCTC 1621 strain assessed as bacterial growth inhibition measured at 18 to 24 hrs in presence of 6 uM NH4Cl by microdilution assay; type: functional; details: time 18-24 hrs
Cell membrane [10] = experiment: Induction of cell membrane depolarization in Staphylococcus aureus assessed as increase in fluorescence intensity at 2 times MIC by SYTOX green staining based analysis
RAW264.7 [11] = experiment: Antiinflammatory activity in LPS-induced mouse RAW264.7 cells assessed as reduction in TNF alpha level at 20 ug/ml measured after 72 hrs by ELISA assay relative to control; type: functional
Staphylococcus aureus [12] = experiment: Additive antibacterial activity against methicillin-resistant Staphylococcus aureus CCARM 3089 strain assessed as bacterial growth inhibition in presence of chloramphenicol by checkerboard assay; type: functional
Staphylococcus aureus [13] = experiment: Synergistic antibacterial activity against methicillin-resistant Staphylococcus aureus CCARM 3089 strain assessed as ciprofloxacin MIC by checkerboard assay; type: functional
Enterococcus faecium = experiment: Antibacterial activity against vancomycin-resistant Enterococcus faecium ATCC 51559 strain assessed as bacterial growth inhibition measured at 18 to 24 hrs by microdilution assay; type: functional; details: time 18-24 hrs
RAW264.7 [14] = experiment: Antiinflammatory activity in LPS-induced mouse RAW264.7 cells assessed as reduction in iNOS mRNA expression level at 5 ug/ml measured after 18 hrs by RT-PCR assay relative to control; type: functional, cell-based; details: dose 5.0 µg/ml
RAW264.7 [15] = experiment: Antiinflammatory activity in LPS-induced mouse RAW264.7 cells assessed as reduction in NO production at 5 ug/ml measured after 72 hrs by ELISA assay relative to control; type: functional
Pseudomonas aeruginosa [16] = experiment: Antibacterial activity against multidrug-resistant Pseudomonas aeruginosa CCARM 2109 strain assessed as bacterial growth inhibition measured at 18 to 24 hrs by microdilution assay; type: functional; details: time 18-24 hrs
Pseudomonas aeruginosa [17] = experiment: Synergistic antibacterial activity against multidrug-resistant Pseudomonas aeruginosa CCARM 2095 strain assessed as chloramphenicol MIC by checkerboard assay; type: functional
Staphylococcus aureus [18] = experiment: Synergistic antibacterial activity against multidrug-resistant Staphylococcus aureus CCARM 3089 strain assessed as ciprofloxacin fractional inhibitory concentration by checkerboard assay; type: functional
Pseudomonas aeruginosa [19] = experiment: Synergistic antibacterial activity against multidrug-resistant Pseudomonas aeruginosa CCARM 2095 strain assessed as bacterial growth inhibition in presence of chloramphenicol by checkerboard assay; type: functional
Cell membrane [20] = experiment: Induction of outer membrane permeabilization in Escherichia coli KCTC 1682 assessed as increase in fluorescence intensity at 2 to 8 ug/ml by NPN staining based analysis; details: dose 2-8 µg/ml
Escherichia coli [21] = experiment: Antibacterial activity against Escherichia coli KCTC 1682 strain assessed as bacterial growth inhibition measured at 18 to 24 hrs in presence of 1 mM MgCl2 by microdilution assay; type: functional; details: time 18-24 hrs
Staphylococcus aureus [22] = experiment: Antibacterial activity against Staphylococcus aureus KCTC 1621 strain assessed as bacterial growth inhibition measured at 18 to 24 hrs in presence of 20% human serum by microdilution assay; type: functional; details: time 18-24 hrs
Staphylococcus aureus [23] = experiment: Antibacterial activity against Staphylococcus aureus KCTC 1621 strain assessed as bacterial growth inhibition measured at 18 to 24 hrs in presence of 150 mM NaCl by microdilution assay; type: functional; details: time 18-24 hrs
Staphylococcus aureus [24] = experiment: Synergistic antibacterial activity against multidrug-resistant Staphylococcus aureus CCARM 3089 strain assessed as fractional inhibitory concentration index in presence of ciprofloxacin by checkerboard assay; type: functional
Escherichia coli [25] = experiment: Antibacterial activity against Escherichia coli KCTC 1682 strain assessed as bacterial growth inhibition measured at 18 to 24 hrs in presence of 20% human serum by microdilution assay; type: functional; details: time 18-24 hrs
Pseudomonas aeruginosa [26] = experiment: Synergistic antibacterial activity against multidrug-resistant Pseudomonas aeruginosa CCARM 2095 strain assessed as chloramphenicol fractional inhibitory concentration by checkerboard assay; type: functional
Staphylococcus aureus [27] = experiment: Synergistic antibacterial activity against methicillin-resistant Staphylococcus aureus CCARM 3089 strain assessed as oxacillin MIC by checkerboard assay; type: functional
Cell membrane [28] = experiment: Induction of inner membrane permeabilization in Escherichia coli ML-35 assessed as increase in […] at 2 times MIC by ONPG staining based analysis
Staphylococcus aureus [29] = experiment: Antibacterial activity against methicillin-resistant Staphylococcus aureus CCARM 3089 strain assessed as bacterial growth inhibition measured at 18 to 24 hrs by microdilution assay; type: functional; details: time 18-24 hrs
Staphylococcus aureus [30] = experiment: Synergistic antibacterial activity against methicillin-resistant Staphylococcus aureus CCARM 3089 strain assessed as fractional inhibitory concentration in presence of oxacillin by checkerboard assay; type: functional
Pseudomonas aeruginosa [31] = experiment: Synergistic antibacterial activity against multidrug-resistant Pseudomonas aeruginosa CCARM 2095 strain assessed as bacterial growth inhibition in presence of oxacillin by checkerboard assay; type: functional
Staphylococcus aureus [32] = experiment: Antibacterial activity against methicillin-resistant Staphylococcus aureus CCARM 3095 strain assessed as bacterial growth inhibition measured at 18 to 24 hrs by microdilution assay; type: functional; details: time 18-24 hrs
Escherichia coli [33] = experiment: Antibacterial activity against Escherichia coli KCTC 1682 strain assessed as bacterial growth inhibition measured after 6 hrs in presence of pepsin by radial diffusion assay; type: functional, organism-based
Escherichia coli [34] = experiment: Antibacterial activity against Escherichia coli KCTC 1682 strain assessed as bacterial growth inhibition measured at 18 to 24 hrs in presence of 150 mM NaCl by microdilution assay; type: functional; details: time 18-24 hrs
Pseudomonas aeruginosa [35] = experiment: Antibacterial activity against multidrug-resistant Pseudomonas aeruginosa CCARM 2095 strain assessed as bacterial growth inhibition measured at 18 to 24 hrs by microdilution assay; type: functional; details: time 18-24 hrs
Cell membrane [36] = experiment: Induction of cell membrane damage in Escherichia coli KCTC 1682 assessed as increase in fluorescent intensity at 2 times MIC incubated for 30 mins by PI staining based flow cytometry assay (reference value: 9.79 %); type: subcellular

Q: Which MIC (Pseudomonas aeruginosa [1]) does the source give for `NCCCCNc1nc(NCCCCN)nc(N2CC(Cc3ccccc3)N(c3nc(NCCCCN)nc(NCCCCN)n3)CC2Cc2ccccc2)n1` (stereo not drawn) here?
A: 32 µg/mL

Q: And the MIC (Pseudomonas aeruginosa [2])?
A: 256 µg/mL

Q: And the FIC (Staphylococcus aureus [3])?
A: 0.125

Q: And the MIC (Staphylococcus aureus [4])?
A: 5.2 µM (≈ 4 µg/mL)

Q: And the Activity (DNA)?
A: Active

Q: What about the MIC (Escherichia coli [5]) of the same compound?
A: 10.4 µM

Q: What about the MIC (Staphylococcus aureus [6]) of the same compound?
A: 64 µg/mL

Q: And the MIC (Staphylococcus aureus [7])?
A: 5.2 µM

Q: And the “fractional inhibitory concentration index (FICI)” value (Staphylococcus aureus [8])?
A: 0.625

Q: What about the MIC (Staphylococcus aureus [9]) of the same compound?
A: 5.2 µM

Q: What about the Activity (Cell membrane [10]) of the same compound?
A: inactive

Q: What about the inhibition at 20 µg/mL (RAW264.7 [11]) of the same compound?
A: 97.2%

Q: And the MIC (Staphylococcus aureus [12])?
A: 2 µg/mL

Q: What about the MIC (Staphylococcus aureus [13]) of the same compound?
A: 64 µg/mL

Q: What about the MIC (Enterococcus faecium) of the same compound?
A: 41.6 µM (≈ 32 µg/mL)

Q: And the Activity (RAW264.7 [14])?
A: Active

Q: And the inhibition at 5 µg/mL (RAW264.7 [15])?
A: 72.6%

Q: And the MIC (Pseudomonas aeruginosa [16])?
A: 10.4 µM (≈ 8 µg/mL)

Q: What about the MIC (Pseudomonas aeruginosa [17]) of the same compound?
A: 128 µg/mL

Q: What about the FIC (Staphylococcus aureus [18]) of the same compound?
A: 0.125

Q: And the MIC (Pseudomonas aeruginosa [19])?
A: 8 µg/mL

Q: What about the Activity (Cell membrane [20]) of the same compound?
A: inactive

Q: And the MIC (Escherichia coli [21])?
A: 10.4 µM

Q: And the MIC (Staphylococcus aureus [22])?
A: 10.4 µM

Q: What about the MIC (Staphylococcus aureus [23]) of the same compound?
A: 5.2 µM

Q: And the “fractional inhibitory concentration index (FICI)” value (Staphylococcus aureus [24])?
A: 0.375

Q: And the MIC (Escherichia coli [25])?
A: 10.4 µM

Q: What about the FIC (Pseudomonas aeruginosa [26]) of the same compound?
A: 0.125

Q: And the MIC (Staphylococcus aureus [27])?
A: 256 µg/mL

Q: And the Activity (Cell membrane [28])?
A: inactive

Q: And the MIC (Staphylococcus aureus [29])?
A: 5.2 µM (≈ 4 µg/mL)

Q: And the FIC (Staphylococcus aureus [30])?
A: 0.25

Q: What about the MIC (Pseudomonas aeruginosa [31]) of the same compound?
A: 8 µg/mL

Q: And the MIC (Staphylococcus aureus [32])?
A: 10.4 µM (≈ 8 µg/mL)

Q: And the Activity (Escherichia coli [33])?
A: Active

Q: And the MIC (Escherichia coli [34])?
A: 10.4 µM

Q: And the MIC (Pseudomonas aeruginosa [35])?
A: 41.6 µM (≈ 32 µg/mL)

Q: And the Flu intensity (Cell membrane [36])?
A: 6.03%
